Laboratory results from PubChem BioAssay AID1963847 (Molecular Pharmacology Branch, DTP, NCI, 2024).

Tested on: 415267-285-R-J2-PDC complex spheroid viability
Assay: Anticancer human tumor 415267-285-R-J2-PDC patient-derived breast carcinoma cell line growth inhibition [POLQ]
Details: for IC50: curve of first compound; for viability, T/C: stronger effect = lower value
Description: Multicellular complex tumor spheroid response to Polymerase (POL) inhibitors (novobiocin, ART-558, RP6685) in combination with a variety of drugs and investigational agents in selected tumor cell lines
The POL inhibitors (novobiocin, ART-558, and RP6685) were evaluated both individually and in combination with standard of care and investigational anticancer small molecules within a complex spheroid model of solid tumors. . Complex spheroids include a stromal component modeled by human endothelial cells (HUVEC) and fibroblasts modeled by human mesenchymal stem cells (MSCs). The concentration ranges selected for each drug and investigational agent were based upon clinically achievable concentrations if the clinical Cmax of the agent was known.
Compounds. The drugs and investigational agents: novobiocin (NSC847541), ART-558 (NSC835418), RP-6685 (NSC848927), peposertib (NSC802822), ceralasertib (NSC780249), elimusertib (NSC800525), camonsertib (NSC841442), AZD-1390 (NSC803789), olaparib (NSC753686), talazoparib (NSC767125), rucaparib (NSC756644), sotorasib (NSC818433), MRTX-1133 (NSC836407), SN-38 (NSC673596), topotecan (NSC609699), epotoside (NSC141540), doxorubicin (NSC123127), gemcitabine (NSC613327), 5-fluorouracil (NSC19893), paclitaxel (NSC125973), vemurafenib (NSC761431), MSA-2 (NSC828583), SN-011 (NSC837082), adavosertib (NSC754352), prexasertib (NSC758257), carboplatin (NSC241240) and oxaliplatin (NSC266046), were obtained from the National Cancer Institute (NCI) Developmental Therapeutics Program Chemical Repository (21). The FDA-approved anticancer drug set is available from the Developmental Therapeutics Program at https://dtp.cancer.gov/organization/dscb/obtaining/. […] The stock solutions were prepared in dimethyl sulfoxide (DMSO, Sigma-Aldrich, St. Louis, MO, cat. D2650), except for the platinum compounds which were prepared in saline (Quality Biological, Gaithersburg, MD, cat. 114-055-101), at 800-fold the tested concentration and stored at -70 degrees C prior to their use. All drugs and investigational agents were tested over a range starting from a high concentration at or near the clinical Cmax and decreasing in half-log increments. If the clinical Cmax for an agent had not been determined, the highest concentration tested was 10 microM, except for SN-38, which was tested at a high concentration of 1 microM.
Cell Culture. All cells were maintained in an incubator at 37 degrees C and 5% CO2 with 95% humidity. The PDC lines were cultured according to standard operating procedures established by the NCI PDMR (https://pdmr.cancer.gov). Table 3 of the manuscript, lists the cell lines along with the number of the three cell types plated to form the mct-spheroids and media for tumor cell growth. After thawing, all PDC lines, except 997537-175-T-J1-PDC and 415267-285-R-J2-PDC, were cultured in Matrigel-coated flasks prepared with a working solution of 1X Ham's F-12 nutrient mix, without supplementation (Thermo Fisher Scientific, cat. 11765054), 100 U/mL penicillin-streptomycin (Thermo Fisher Scientific, cat. 15140122), and 2.5% Matrigel (Corning Inc., Corning, NY, cat. 354248) for the first three passages. The two PDC lines 997537-175-T-J1-PDC and 415267-285-R-J2-PDC were cultured on uncoated flasks. The 857933-349-R-J2-PDC line was cultured in 6C/Colon 1B media containing advanced DMEM/F-12 (Thermo Fisher Scientific, cat. 12634028), 10 mM HEPES (Thermo Fisher Scientific, cat. 15630080), 1X GlutaMAX supplement (Thermo Fisher Scientific, cat. 35050061), 0.1 mg/mL primocin (InvivoGen, San Diego, CA, cat. ant-pm-2), 10% defined fetal bovine serum, heat inactivated (HyClone Laboratories Inc., Logan, UT, cat. SH30070.03HI), 50% L-WRN conditioned media (ATCC, cat. CRL-3276), 1.25 mM N-Acetyl-L-cysteine (Sigma-Aldrich, cat. A9165), 10 mM nicotinamide (Sigma-Aldrich, cat. N0636), 1X B-27 supplement (Thermo Fisher Scientific, cat. 17504044), 1X N-2 supplement (Thermo Fisher Scientific, cat. […]

[1] = second compound 0.0316 µM, first compound 0.0316 µM
[2] = second compound 0.0316 µM, first compound 0.1 µM
[3] = second compound 0.0316 µM, first compound 0.316 µM
[4] = second compound 0.0316 µM, first compound 1 µM
[5] = second compound 0.1 µM, first compound 0.0316 µM
[6] = second compound 0.1 µM, first compound 0.1 µM
[7] = second compound 0.1 µM, first compound 0.316 µM
[8] = second compound 0.1 µM, first compound 1 µM
[9] = second compound 0.316 µM, first compound 0.0316 µM
[10] = second compound 0.316 µM, first compound 0.1 µM
[11] = second compound 0.316 µM, first compound 0.316 µM
[12] = second compound 0.316 µM, first compound 1 µM
[13] = second compound 1 µM, first compound 0.0316 µM
[14] = second compound 1 µM, first compound 0.1 µM
[15] = second compound 1 µM, first compound 0.316 µM
[16] = second compound 1 µM, first compound 1 µM
[17] = second compound 3.16 µM, first compound 0.0316 µM
[18] = second compound 3.16 µM, first compound 0.1 µM
[19] = second compound 3.16 µM, first compound 0.316 µM
[20] = second compound 3.16 µM, first compound 1 µM
[21] = second compound 10 µM, first compound 0.0316 µM
[22] = second compound 10 µM, first compound 0.1 µM
[23] = second compound 10 µM, first compound 0.316 µM
[24] = second compound 10 µM, first compound 1 µM
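Note: spheroids exposed to compounds for one week before readout.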
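Throughout, for viability, T/C: luminescence used as stand-in measure of viable cells; 100% = DMSO vehicle control viability.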

Compound: O=c1[nH]cc(F)c(=O)[nH]1 + Cc1cccc(N(C)C(=O)C2C(O)CCN2c2nc(C)cc(C(F)(F)F)c2C#N)c1
- IC50 (second compound 0.0316 µM): 222 nM
- IC50 (second compound 0.1 µM): 207 nM
- IC50 (second compound 0.316 µM): 203 nM
- IC50 (second compound 1 µM): 181 nM
- IC50 (second compound 3.16 µM): 192 nM
- IC50 (second compound 10 µM): 179 nM
- viability, T/C [1]: 87.3%
- viability, T/C [2]: 83.9%
- viability, T/C [3]: 35.1%
- viability, T/C [4]: 30.1%
- viability, T/C (second compound 0.0316 µM, first compound 3.16 µM): 27.6%
- viability, T/C (second compound 0.0316 µM, first compound 10 µM): 43%
- viability, T/C [5]: 97.1%
- viability, T/C [6]: 72.6%
- viability, T/C [7]: 37.3%
- viability, T/C [8]: 27.2%
- viability, T/C (second compound 0.1 µM, first compound 3.16 µM): 28%
- viability, T/C (second compound 0.1 µM, first compound 10 µM): 39%
- viability, T/C [9]: 98.8%
- viability, T/C [10]: 72%
- viability, T/C [11]: 36.9%
- viability, T/C [12]: 26.6%
- viability, T/C (second compound 0.316 µM, first compound 3.16 µM): 26.8%
- viability, T/C (second compound 0.316 µM, first compound 10 µM): 36.1%
- viability, T/C [13]: 100%
- viability, T/C [14]: 64.8%
- viability, T/C [15]: 36.7%
- viability, T/C [16]: 28.5%
- viability, T/C (second compound 1 µM, first compound 3.16 µM): 25.6%
- viability, T/C (second compound 1 µM, first compound 10 µM): 35.4%
- viability, T/C [17]: 95.8%
- viability, T/C [18]: 67.9%
- viability, T/C [19]: 36.6%
- viability, T/C [20]: 28.8%
- viability, T/C (second compound 3.16 µM, first compound 3.16 µM): 33.5%
- viability, T/C (second compound 3.16 µM, first compound 10 µM): 33.6%
- viability, T/C [21]: 92.1%
- viability, T/C [22]: 64.5%
- viability, T/C [23]: 36.3%
- viability, T/C [24]: 26.8%
- viability, T/C (second compound 10 µM, first compound 3.16 µM): 24.7%
- viability, T/C (second compound 10 µM, first compound 10 µM): 29.4%

Compound: COc1cccc(OCCCN)c1-c1cc(Nc2cnc(C#N)cn2)n[nH]1 + Cc1cccc(N(C)C(=O)C2C(O)CCN2c2nc(C)cc(C(F)(F)F)c2C#N)c1
- IC50 (second compound 0.0316 µM): 7.34 nM
- IC50 (second compound 0.1 µM): 6.81 nM
- IC50 (second compound 0.316 µM): 6.37 nM
- IC50 (second compound 1 µM): 5.94 nM
- IC50 (second compound 3.16 µM): 5.9 nM
- IC50 (second compound 10 µM): 5.77 nM
- viability, T/C (second compound 0.0316 µM, first compound 0.00316 µM): 116%
- viability, T/C (second compound 0.0316 µM, first compound 0.01 µM): 25.7%
- viability, T/C [1]: 6.57%
- viability, T/C [2]: 5.98%
- viability, T/C [3]: 5.5%
- viability, T/C [4]: 4.04%
- viability, T/C (second compound 0.1 µM, first compound 0.00316 µM): 106%
- viability, T/C (second compound 0.1 µM, first compound 0.01 µM): 22.1%
- viability, T/C [5]: 5.33%
- viability, T/C [6]: 6.85%
- viability, T/C [7]: 7.24%
- viability, T/C [8]: 4.47%
- viability, T/C (second compound 0.316 µM, first compound 0.00316 µM): 107%
- viability, T/C (second compound 0.316 µM, first compound 0.01 µM): 13%
- viability, T/C [9]: 5.56%
- viability, T/C [10]: 4.64%
- viability, T/C [11]: 4.82%
- viability, T/C [12]: 4.6%
- viability, T/C (second compound 1 µM, first compound 0.00316 µM): 99.2%
- viability, T/C (second compound 1 µM, first compound 0.01 µM): 9.45%
- viability, T/C [13]: 5.53%
- viability, T/C [14]: 5.41%
- viability, T/C [15]: 6.23%
- viability, T/C [16]: 4.72%
- viability, T/C (second compound 3.16 µM, first compound 0.00316 µM): 97.3%
- viability, T/C (second compound 3.16 µM, first compound 0.01 µM): 10.1%
- viability, T/C [17]: 7.08%
- viability, T/C [18]: 5.58%
- viability, T/C [19]: 5.55%
- viability, T/C [20]: 4.93%
- viability, T/C (second compound 10 µM, first compound 0.00316 µM): 94.3%
- viability, T/C (second compound 10 µM, first compound 0.01 µM): 9.4%
- viability, T/C [21]: 6.2%
- viability, T/C [22]: 10.2%
- viability, T/C [23]: 5.74%
- viability, T/C [24]: 5.13%
